Each structure is given as a SMILES string.

The nature of the experiment: Antagonist activity at human dopamine D2 receptor expressed in CHOp cells assessed as inhibition of quinpirole-induced mitogenesis.

Regarding `COc1ccc2oc(C(=O)NCCC(F)CN3CCN(c4cccc(Cl)c4Cl)CC3)cc2c1` (configuration not stated) [N-(4-(4-(2,3-Dichlorophenyl)piperazin-1-yl)-3-fluorobutyl)-5-methoxybenzofuran-2-carboxamide], the 50% inhibitory concentration (IC50) is 1600 nM.
The figure for `COc1ccccc1N1CCN(CC(F)CCNC(=O)c2cc3ccccc3s2)CC1` (configuration not stated) [N-(3-Fluoro-4-(4-(2-methoxyphenyl)piperazin-1-yl)butyl)-benzo[b]thiophene-2-carboxamide] is 421 nM.

The record behind these values is BindingDB's records for doi:10.1021/jm200288r (National Institute On Drug Abuse-Intramural Research Program, 2011).
